Measurements: paper PMC6291243 (The Journal of organic chemistry, 2018)

Columns and labels:
Mur20 = Mur20 (Streptomyces sp. NRRL 30471, UniProt F2WUD2); assay: HPLC, specific activity; format: biochemical; details: amine donor; 1 mM 11a, 50 mM potassium phosphate pH 7.5, 30 °C
LipM = molecular target: T1, LipM (Streptomyces sp. SANK 60405, UniProt D4QF26); assay: HPLC of UDP-sugar, coupled with phosphorylase; format: biochemical; details: generated in situ from 13b; UTP
T1 sequence (D4QF26 1-233): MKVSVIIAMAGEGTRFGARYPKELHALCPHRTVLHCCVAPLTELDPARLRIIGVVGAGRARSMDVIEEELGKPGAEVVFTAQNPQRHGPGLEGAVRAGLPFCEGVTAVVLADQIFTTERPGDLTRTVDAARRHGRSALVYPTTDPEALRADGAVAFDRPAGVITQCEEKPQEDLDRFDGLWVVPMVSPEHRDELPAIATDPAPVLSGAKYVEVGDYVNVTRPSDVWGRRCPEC

SMILES	HPLC, specific activity (Mur20)	HPLC of UDP-sugar, coupled with phosphorylase (LipM)
N[C@@H](Cc1ccc(O)cc1)C(=O)O [L-Tyr]	the specific activity for Mur20 was highest using L-Tyr as an amine donor	–
NC[C@H]1O[C@H](OP(=O)(O)O)C[C@@H]1O [5-amino-2,5-dideoxy-α-D-ribose-1-phosphate]	–	either enzyme was substituted with the respective orthologous proteins LipP or LipM
